Patent US20260242416A1, “ANTIMICROBIAL PEPTIDES” (priority 2023, published 2026)
Values after ≈ are worked out from the molar mass of the structure shown. Where a SMILES comes first, the peptide text is derived from it.

Assays:
[1] = system: E. coli ATCC 25922, Salmonella Enteritidis, S. aureus ATCC 29213; assay: Broth microdilution, panel result (at least one / all strains), Example 2; type: cell-based; design: key to inhibitory activity (asterisk): *Indicates inhibitory activity; details: Table 14; against at least one of E. coli ATCC 25922, Salmonella Enteritidis, S. aureus ATCC 29213
Method: The antimicrobial activity of the putative AMPs was determined by a broth microdilution assay as described by the Clinical and Laboratory Standards Institute, with the published adaptations for testing of cationic peptides. Escherichia coli 25922 and Staphylococcus aureus 29213 isolates were purchased from the American Type Culture Collection (ATCC; Manassas, VA, USA). A human clinical isolate of Salmonella enterica serovar Enteritidis was provided by the BC Centre for Disease Control. Bacteria from stocks stored at −80° C. were streaked onto nonselective Columbia blood agar with 5% sheep blood (Oxoid) and incubated overnight at 37° C. Next, 2-4 colonies were streaked onto a new agar plate to ensure uniform health of colonies used in the broth microdilution assay. Isolated colonies were suspended in MHB and the optical density was measured with a spectrophotometer to create an initial inoculum concentration of approximately 1×10^8 cfu/mL. The inoculum was diluted 1:250 to a final concentration of 2-8×10^5 cfu/mL, which was confirmed by performing a Total Viability Count (TVC). The TVC consisted of plating a 1:1000 dilution of the final inoculum on nonselective media and was also used to confirm the health and purity of the inoculum in each trial.
Lyophilized 80 μg peptide aliquots synthesized by GenScript (Piscataway, NJ, USA) were resuspended to 1.28 mg/mL with UltraPure water (Thermo Fisher Scientific, Waltham, MA, USA) and serially diluted in polypropylene 96-well microtiter plates (Greiner Bio-One #650261, Kremsmunster, Austria) from 128 down to 0.5 μg/mL. Two columns per plate were reserved for growth and sterility controls. Inoculum was added to the wells containing the peptide and the growth control. Plates were incubated for 20-24 h at 37° C. The minimum inhibitory concentration (MIC) was determined as the lowest peptide concentration where there was no visible bacterial growth.

[2] = system: Salmonella enterica serovar Enteritidis (human clinical isolate); type: cell-based; details: serovar Enteritidis (human clinical isolate)
In short: (§1)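 CLSI broth microdilution adapted for cationic peptides, in Mueller-Hinton broth, inoculum 2-8×10^5 cfu/mL. Peptides serially diluted from 128 to 0.5 μg/mL in polypropylene plates, incubated 20-24 h at 37° C. MIC = lowest concentration without visible growth.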

S. aureus ATCC 29213 = type: cell-based, Staphylococcus aureus; details: ATCC 29213
In short: as §1

E. coli ATCC 25922 = type: cell-based, Escherichia coli; details: ATCC 25922
In short: as §1

| SMILES | MIC (ug/mL) S. Enteritidis [2] | MIC (ug/mL) S. aureus (S. aureus ATCC 29213) | MIC (ug/mL) E. coli (E. coli ATCC 25922) | inhibitory activity (asterisk) [1] |
| --- | --- | --- | --- | --- |
| CC(C)C[C@H](NC(=O)CN)C(=O)N[C@@H](CC(C)C)C(=O)NCC(=O)N[C@@H](CCCCN)C(=O)N[C@H](C(=O)N[C@@H](CC(C)C)C(=O)NCC(=O)N[C@H](C(=O)NCC(=O)N[C@@H](CCCCN)C(=O)N[C@@H](CCCCN)C(=O)N[C@H](C(=O)N[C@@H](CC(C)C)C(=O)N[C@@H](CS)C(=O)NCC(=O)N[C@H](C(=O)N[C@H](C(=O)NCC(=O)N[C@@H](CCCNC(=N)N)C(=O)N[C@@H](CCC(=O)O)C(=O)N[C@@H](CCCNC(=N)N)C(=O)N[C@@H](CS)C(=O)N[C@@H](CCC(N)=O)C(=O)O)[C@@H](C)O)C(C)C)C(C)C)C(C)C)C(C)C [PeNi5] (H-GLLGKVLGVGKKVLCGVTGRERCQ-OH; N-terminus and C-terminus assumed) |  |  |  | 359.* GLLGKVLGVGKKVLCGVTGRERCQ |
| CC[C@H](C)[C@H](NC(=O)[C@@H](N)C(C)C)C(=O)N1CCC[C@H]1C(=O)N[C@@H](Cc1ccccc1)C(=O)N[C@H](C(=O)N[C@@H](C)C(=O)N[C@@H](CO)C(=O)N[C@H](C(=O)N[C@@H](C)C(=O)N[C@@H](C)C(=O)N[C@@H](CCC(=O)O)C(=O)N[C@@H](CCSC)C(=O)N[C@@H](CCSC)C(=O)N[C@@H](Cc1c[nH]cn1)C(=O)N[C@@H](Cc1c[nH]cn1)C(=O)N[C@H](C(=O)N[C@@H](Cc1ccc(O)cc1)C(=O)N[C@@H](CS)C(=O)N[C@@H](C)C(=O)N[C@@H](C)C(=O)N[C@@H](CO)C(=O)N[C@@H](CCCCN)C(=O)N[C@@H](CCCNC(=N)N)C(=O)N[C@@H](CS)C(=O)N[C@@H](CCCCN)C(=O)N[C@@H](CC(N)=O)C(=O)O)C(C)C)C(C)C)C(C)C [PeNi7] (H-VIPFVASVAAEMMHHVYCAASKRCKN-OH; N-terminus and C-terminus assumed) |  |  |  | 1088.* VIPFVASVAAEMMHHVYCAASKRCKN |
| CC[C@H](C)[C@H](NC(=O)CN)C(=O)N[C@@H](CC(C)C)C(=O)N[C@@H](CC(C)C)C(=O)N[C@@H](CC(N)=O)C(=O)N[C@H](C(=O)N[C@@H](CC(C)C)C(=O)N[C@@H](CCCCN)C(=O)NCC(=O)N[C@@H](C)C(=O)N[C@@H](C)C(=O)N[C@@H](CCCCN)C(=O)N[C@@H](CC(N)=O)C(=O)N[C@H](C(=O)N[C@@H](C)C(=O)NCC(=O)N[C@H](C(=O)N[C@@H](CC(C)C)C(=O)N[C@@H](CC(C)C)C(=O)N[C@@H](CC(=O)O)C(=O)N[C@@H](CCCCN)C(=O)N[C@@H](CC(C)C)C(=O)N[C@@H](CCCCN)C(=O)N[C@@H](CS)C(=O)N[C@@H](CCCCN)C(=O)N[C@H](C(=O)N[C@H](C(=O)NCC(=O)NCC(=O)N[C@@H](CS)C(=O)O)[C@@H](C)O)[C@@H](C)CC)C(C)C)C(C)C)[C@@H](C)O [PeNi8] (H-GILLNTLKGAAKNVAGVLLDKLKCKITGGC-OH; N-terminus and C-terminus assumed) |  |  |  | 1097.* GILLNTLKGAAKNVAGVLLDKLKCKITGGC |
| CC[C@H](C)[C@H](NC(=O)[C@H](CO)NC(=O)[C@@H]1CCCN1C(=O)[C@H](CC(C)C)NC(=O)[C@@H](NC(=O)[C@H](CCCCN)NC(=O)[C@H](C)NC(=O)[C@H](C)NC(=O)[C@H](CC(C)C)NC(=O)CNC(=O)[C@H](C)NC(=O)[C@@H](NC(=O)[C@@H](NC(=O)[C@@H]1CCCN1C(=O)[C@H](CC(C)C)NC(=O)[C@@H](N)Cc1ccccc1)C(C)C)C(C)C)C(C)C)C(=O)N[C@H](C(=O)N[C@@H](CS)C(=O)N[C@@H](C)C(=O)N[C@H](C(=O)N[C@H](C(=O)N[C@@H](CCCCN)C(=O)N[C@@H](CCCCN)C(=O)N[C@@H](CS)C(=O)O)[C@@H](C)O)C(C)C)[C@@H](C)CC [RaCa15] (H-FLPVVAGLAAKVLPSIICAVTKKC-OH; N-terminus and C-terminus assumed) |  |  |  | 1098.* FLPVVAGLAAKVLPSIICAVTKKC |
| CC[C@H](C)[C@H](NC(=O)[C@H](CO)NC(=O)[C@@H]1CCCN1C(=O)[C@H](CC(C)C)NC(=O)[C@@H](NC(=O)[C@H](CCCCN)NC(=O)[C@H](C)NC(=O)[C@H](C)NC(=O)[C@H](CC(C)C)NC(=O)CNC(=O)[C@H](C)NC(=O)[C@@H](NC(=O)[C@@H](NC(=O)[C@@H]1CCCN1C(=O)[C@H](CC(C)C)NC(=O)[C@H](Cc1ccccc1)NC(=O)[C@H](CCCNC(=N)N)NC(=O)[C@H](CCC(N)=O)NC(=O)[C@H](CCC(=O)O)NC(=O)[C@@H](N)CCC(=O)O)C(C)C)C(C)C)C(C)C)C(=O)N[C@H](C(=O)N[C@@H](CS)C(=O)N[C@@H](C)C(=O)N[C@H](C(=O)N[C@H](C(=O)N[C@@H](CCCCN)C(=O)N[C@@H](CCCCN)C(=O)N[C@@H](CS)C(=O)O)[C@@H](C)O)C(C)C)[C@@H](C)CC [RaSy2] (H-EEQRFLPVVAGLAAKVLPSIICAVTKKC-OH; N-terminus and C-terminus assumed) |  |  |  | 673.* EEQRFLPVVAGLAAKVLPSIICAVTKKC |

The next lines start with results.

| MIC (ug/mL) S. Enteritidis [2] | MIC (ug/mL) S. aureus (S. aureus ATCC 29213) | MIC (ug/mL) E. coli (E. coli ATCC 25922) | SMILES | inhibitory activity (asterisk) [1] |
| --- | --- | --- | --- | --- |
| 128/>128/>128 ug/mL | 128/>128/>128 ug/mL | 128/>128/>128 ug/mL | CC[C@H](C)[C@H](NC(=O)[C@@H]1CCCN1C(=O)[C@H](CS)NC(=O)[C@H](C)NC(=O)[C@@H](N)Cc1ccccc1)C(=O)NCC(=O)N[C@@H](Cc1ccccc1)C(=O)N[C@@H](Cc1ccccc1)C(=O)N[C@@H](CCCNC(=N)N)C(=O)N[C@@H](CC(C)C)C(=O)N[C@@H](CCCCN)C(=O)N[C@@H](CCCNC(=N)N)C(=O)O [CaCa1, FACPIGFFRLKR] (H-FACPIGFFRLKR-OH; N-terminus and C-terminus assumed) | 826.* FACPIGFFRLKR |
| 32 µg/mL (≈ 15.9 µM) | 16 to 32 µg/mL | 4 to 8 µg/mL | CC[C@H](C)[C@H](NC(=O)CNC(=O)[C@H](C)NC(=O)[C@@H](NC(=O)[C@@H](NC(=O)[C@H](CO)NC(=O)[C@H](C)NC(=O)[C@@H](NC(=O)[C@H](CCCCN)NC(=O)[C@H](CCCCN)NC(=O)[C@H](C)NC(=O)[C@@H](NC(=O)[C@H](CC(=O)O)NC(=O)[C@H](CC(C)C)NC(=O)[C@H](Cc1c[nH]c2ccccc12)NC(=O)CN)[C@@H](C)CC)C(C)C)C(C)C)C(C)C)C(=O)N[C@H](C(=O)N[C@@H](CCCCN)C(=O)N[C@@H](CCCNC(=N)N)C(=O)O)C(C)C [LiVe1, GWLDIAKKVASVVAGIVKR] (H-GWLDIAKKVASVVAGIVKR-OH; N-terminus and C-terminus assumed) | 37.* GWLDIAKKVASVVAGIVKR |
| 64 to 128 µg/mL | 64 µg/mL (≈ 32.5 µM) | 4 to 8 µg/mL | CC[C@H](C)[C@H](NC(=O)[C@H](CC(=O)O)NC(=O)[C@H](CC(C)C)NC(=O)[C@H](Cc1c[nH]c2ccccc12)NC(=O)CN)C(=O)N[C@@H](C)C(=O)N[C@@H](CCCCN)C(=O)N[C@@H](CCCCN)C(=O)N[C@H](C(=O)N[C@@H](C)C(=O)N[C@@H](CO)C(=O)N[C@H](C(=O)N[C@H](C(=O)N[C@@H](C)C(=O)NCC(=O)N[C@@H](CC(C)C)C(=O)NCC(=O)N[C@@H](CCCCN)C(=O)N[C@@H](CCCNC(=N)N)C(=O)O)C(C)C)C(C)C)C(C)C [LiVe2, GWLDIAKKVASVVAGLGKR] (H-GWLDIAKKVASVVAGLGKR-OH; N-terminus and C-terminus assumed) | 40.* GWLDIAKKVASVVAGLGKR |
| 64 µg/mL (≈ 44.3 µM) | 128 µg/mL (≈ 88.5 µM) | 8 to 16 µg/mL | CC(C)C[C@H](NC(=O)[C@H](CCCCN)NC(=O)[C@H](Cc1c[nH]c2ccccc12)NC(=O)[C@H](CC(C)C)NC(=O)[C@@H](NC(=O)[C@H](CC(C)C)NC(=O)[C@H](Cc1ccccc1)NC(=O)[C@H](CC(C)C)NC(=O)[C@@H](N)CCCCN)[C@@H](C)O)C(=O)N[C@@H](CCCCN)C(=O)N[C@@H](CCCNC(=N)N)C(=O)O [NaVi3, KLFLTLWKLKR] (H-KLFLTLWKLKR-OH; N-terminus and C-terminus assumed) | 895.* KLFLTLWKLKR |
| 128 µg/mL (≈ 64.2 µM) | 64 µg/mL (≈ 32.1 µM) | 8 to 16 µg/mL | CC[C@H](C)[C@H](NC(=O)CNC(=O)[C@H](CO)NC(=O)[C@H](CC(C)C)NC(=O)[C@H](CC(C)C)NC(=O)CN)C(=O)N[C@@H](CC(C)C)C(=O)NCC(=O)N[C@@H](C)C(=O)NCC(=O)N[C@@H](CCCCN)C(=O)N[C@@H](CCCCN)C(=O)N[C@H](C(=O)N[C@H](C(=O)N[C@@H](CS)C(=O)NCC(=O)N[C@@H](Cc1ccccc1)C(=O)N[C@@H](CO)C(=O)NCC(=O)N[C@@H](CC(C)C)C(=O)N[C@@H](CS)C(=O)O)C(C)C)[C@@H](C)CC [OdMa1] (H-GLLSGILGAGKKIVCGFSGLC-OH; N-terminus and C-terminus assumed) | 71.* GLLSGILGAGKKIVCGFSGLC |
